Experimental data: ChEMBL document CHEMBL1201862, “PubChem BioAssay data set” (2004)
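Growth conditions: 96-well plates. Treatment: test compound, 48 hours, 5 concentrations. Analysis: linear interpolation between bracketing concentrations; unreached endpoints set to highest concentration. GI50 marks 50% less growth.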 Calls of active or inactive are those of the source. Cut-off read from the data, not from the text of the source: active = GI50 up to about 1.1 µM and inactive = higher.

Legend:
Assay in all cases: NCI anticancer screen, dose series, 48 h
M14 = tested on: M14
EKVX = tested on: EKVX
HCT-116 = tested on: HCT-116
U-251 = tested on: U-251
OVCAR-3 = tested on: OVCAR-3
NCI-H23 = tested on: NCI-H23
SK-MEL-28 = tested on: SK-MEL-28
786-0 = tested on: 786-0
TK-10 = tested on: TK-10
KM-20L2 = tested on: KM-20L2
OVCAR-8 = tested on: OVCAR-8
RXF 393 = tested on: RXF 393
SN12C = tested on: SN12C
SNB-19 = tested on: SNB-19
ACHN = tested on: ACHN
MOLT-4 = tested on: MOLT-4
SF-539 = tested on: SF-539
A549 = tested on: A549
IGROV-1 = tested on: IGROV-1
NCI-H522 = tested on: NCI-H522
A498 = tested on: A498
SK-MEL-5 = tested on: SK-MEL-5
SF-268 = tested on: SF-268
SW-620 = tested on: SW-620
DMS-273 = tested on: DMS-273
HOP-92 = tested on: HOP-92
CAKI-1 = tested on: CAKI-1
NCI-H460 = tested on: NCI-H460
Malme-3M = tested on: Malme-3M
M19-MEL = tested on: M19-MEL
NCI-H226 = tested on: NCI-H226
K562 = tested on: K562
LOX IMVI = tested on: LOX IMVI
HT-29 = tested on: HT-29
XF498 = tested on: XF498
UO-31 = tested on: UO-31
SF-295 = tested on: SF-295
UACC-257 = tested on: UACC-257
OVCAR-4 = tested on: OVCAR-4
OVCAR-5 = tested on: OVCAR-5
SNB-78 = tested on: SNB-78
HOP-62 = tested on: HOP-62
COLO 205 = tested on: COLO 205
LXFL 529 = tested on: LXFL 529
CCRF-CEM = tested on: CCRF-CEM
HL-60 = tested on: HL-60
HCT-15 = tested on: HCT-15
UACC-62 = tested on: UACC-62
SK-MEL-2 = tested on: SK-MEL-2
SK-OV-3 = tested on: SK-OV-3
SNB-75 = tested on: SNB-75
HCC 2998 = tested on: HCC 2998
DLD-1 = tested on: DLD-1
SR = tested on: SR
RPMI-8226 = tested on: RPMI-8226
KM12 = tested on: KM12

With `CC(=O)Nc1ccc(C(=O)NN2C(=O)C(Cl)C2c2ccc([N+](=O)[O-])cc2)cc1` (centres undefined) the GI50 (M14) was > 100 µM (inactive), the GI50 (EKVX) was > 100 µM (inactive) and the GI50 (HCT-116) was > 100 µM (inactive). For the same molecule, the GI50 (U-251) was > 100 µM (inactive), the GI50 (OVCAR-3) was > 100 µM (inactive) and the GI50 (NCI-H23) was > 100 µM (inactive). The GI50 (SK-MEL-28) was > 100 µM (inactive), the GI50 (786-0) was > 100 µM (inactive) and the GI50 (TK-10) was > 100 µM (inactive). For the same molecule, the GI50 (KM-20L2) was > 100 µM (inactive), the GI50 (OVCAR-8) was > 100 µM (inactive) and the GI50 (RXF 393) was > 100 µM (inactive). The GI50 (SN12C) was > 100 µM (inactive), the GI50 (SNB-19) was > 100 µM (inactive) and the GI50 (ACHN) was > 100 µM (inactive). The GI50 (MOLT-4) was > 100 µM (inactive), the GI50 (SF-539) was > 100 µM (inactive) and the GI50 (A549) was > 100 µM (inactive). The GI50 (IGROV-1) was > 100 µM (inactive), the GI50 (NCI-H522) was > 100 µM (inactive) and the GI50 (A498) was > 100 µM (inactive). For the same molecule, the GI50 (SK-MEL-5) was > 100 µM (inactive), the GI50 (SF-268) was > 100 µM (inactive) and the GI50 (SW-620) was > 100 µM (inactive). The GI50 (DMS-273) was > 100 µM (inactive), the GI50 (HOP-92) was > 100 µM (inactive) and the GI50 (CAKI-1) was > 100 µM (inactive). For the same molecule, the GI50 (NCI-H460) was > 100 µM (inactive), the GI50 (Malme-3M) was > 100 µM (inactive) and the GI50 (M19-MEL) was > 100 µM (inactive). The GI50 (NCI-H226) was > 100 µM (inactive), the GI50 (K562) was > 100 µM (inactive) and the GI50 (LOX IMVI) was > 100 µM (inactive). The GI50 (HT-29) was > 100 µM (inactive), the GI50 (XF498) was > 100 µM (inactive) and the GI50 (UO-31) was > 100 µM (inactive). For the same molecule, the GI50 (SF-295) was > 100 µM (inactive), the GI50 (UACC-257) was > 100 µM (inactive) and the GI50 (OVCAR-4) was > 100 µM (inactive). The GI50 (OVCAR-5) was > 100 µM (inactive), the GI50 (SNB-78) was > 100 µM (inactive) and the GI50 (HOP-62) was > 100 µM (inactive). The GI50 (COLO 205) was > 100 µM (inactive), the GI50 (LXFL 529) was > 100 µM (inactive) and the GI50 (CCRF-CEM) was > 100 µM (inactive). For the same molecule, the GI50 (HL-60) was > 100 µM (inactive), the GI50 (HCT-15) was over 100 µM and the GI50 (UACC-62) was > 100 µM (inactive). For the same molecule, the GI50 (SK-MEL-2) was > 100 µM (inactive), the GI50 (SK-OV-3) was > 100 µM (inactive) and the GI50 (SNB-75) was > 100 µM (inactive).
In the case of `COC(=O)C(NC(=O)c1ccccc1)C(c1ccc(Cl)cc1)P(=O)(OC)OC` (centres undefined), the GI50 (M14) is reported as > 100 µM (inactive), the GI50 (EKVX) is reported as > 100 µM (inactive) and the GI50 (HCC 2998) is reported as > 100 µM (inactive). The GI50 (HCT-116) was > 100 µM (inactive), the GI50 (U-251) was > 100 µM (inactive) and the GI50 (NCI-H23) was 91.4 µM (inactive). For the same molecule, the GI50 (SK-MEL-28) was > 100 µM (inactive), the GI50 (TK-10) was > 100 µM (inactive) and the GI50 (KM-20L2) was > 100 µM (inactive). The GI50 (OVCAR-8) was > 100 µM (inactive), the GI50 (RXF 393) was 33.9 µM (inactive) and the GI50 (SN12C) was > 100 µM (inactive). For the same molecule, the GI50 (DLD-1) was > 100 µM (inactive), the GI50 (SNB-19) was > 100 µM (inactive) and the GI50 (ACHN) was > 100 µM (inactive). The GI50 (MOLT-4) was > 100 µM (inactive), the GI50 (SF-539) was > 100 µM (inactive) and the GI50 (A549) was > 100 µM (inactive). The GI50 (IGROV-1) was > 100 µM (inactive), the GI50 (NCI-H522) was > 100 µM (inactive) and the GI50 (A498) was > 100 µM (inactive). The GI50 (SK-MEL-5) was > 100 µM (inactive), the GI50 (SF-268) was > 100 µM (inactive) and the GI50 (SW-620) was > 100 µM (inactive). For the same molecule, the GI50 (SR) was > 100 µM (inactive), the GI50 (RPMI-8226) was > 100 µM (inactive) and the GI50 (DMS-273) was > 100 µM (inactive). For the same molecule, the GI50 (KM12) was > 100 µM (inactive), the GI50 (HOP-92) was > 100 µM (inactive) and the GI50 (CAKI-1) was > 100 µM (inactive). The GI50 (NCI-H460) was > 100 µM (inactive), the GI50 (M19-MEL) was > 100 µM (inactive) and the GI50 (NCI-H226) was > 100 µM (inactive). The GI50 (K562) was > 100 µM (inactive), the GI50 (LOX IMVI) was > 100 µM (inactive) and the GI50 (HT-29) was > 100 µM (inactive). For the same molecule, the GI50 (XF498) was > 100 µM (inactive), the GI50 (UO-31) was > 100 µM (inactive) and the GI50 (SF-295) was 97.5 µM (inactive). For the same molecule, the GI50 (UACC-257) was > 100 µM (inactive), the GI50 (OVCAR-4) was > 100 µM (inactive) and the GI50 (OVCAR-5) was > 100 µM (inactive). The GI50 (SNB-78) was > 100 µM (inactive), the GI50 (HOP-62) was > 100 µM (inactive) and the GI50 (COLO 205) was > 100 µM (inactive). For the same molecule, the GI50 (LXFL 529) was > 100 µM (inactive), the GI50 (CCRF-CEM) was > 100 µM (inactive) and the GI50 (HL-60) was > 100 µM (inactive). For the same molecule, the GI50 (HCT-15) was over 100 µM, the GI50 (UACC-62) was > 100 µM (inactive) and the GI50 (SK-MEL-2) was > 100 µM (inactive). For the same molecule, the GI50 (SK-OV-3) was > 100 µM (inactive) and the GI50 (SNB-75) was > 100 µM (inactive).
